According to patent publication US9408853B2, “Iridium/rhodium anti-cancer compounds” (University of Warwick, priority 2010, dated 2016):

How the values were obtained:
Format in all cases: cell-based
A549 cancer cell line = assay: Cytotoxicity, MTT assay (Brabec group)
Description: (§1) The cytotoxicity test of ZL07, ZL33, ZL38 and ZL54 against A2780, SW480, A549 and CH1 cell lines was performed by Viktor Brabec group (Institute of Biophysics, Academy of Sciences of the Czech Republic). After plating, the cells were treated with ZL07, ZL33, ZL38 and ZL54. After 72h of incubation 10 μl of MTT (2.5 mg/ml; CALBIOCHEM) was added to each well and incubated for 4 h in culture conditions. At the end of the incubation period the medium was removed and the formazan product was dissolved in 100 μl DMSO. The cell viability was evaluated by measurement of the absorbance at 570 nm, using an Absorbance Reader SUNRICE TECAN SCHOELLER. […] All experiments were made in quadruplicate.

CH1 cancer cell line = assay: Cytotoxicity, MTT assay (Brabec group)
Description: as §1

SW480 cancer cell line = assay: Cytotoxicity, MTT assay (Brabec group)
Description: as §1

[1] = tested on: human ovarian A2780 cancer cells; assay: Cancer cell cytotoxicity, SRB assay; conditions: 24 h exposure, 72 h recovery, SRB; read-out: A2780 IC50
Procedure, shortened: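 Cells plated at 5000/well were dosed on day 3 with Ir^III complexes (0.05–100 μM, from DMSO stocks diluted into saline and medium) for 24 h. After washout they grew for 72 h in fresh medium before SRB protein staining as a survival read-out. Two independent experiments of three replicates each.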

[2] = highest test concentration 130 μM

In the case of `Cc1c(C)c(-c2ccccc2)[c-](C)c1C.F[P-](F)(F)(F)(F)F.[Cl-].[Ir+3].c1cnc2c(c1)ccc1cccnc12` (centres unmarked) [ZL33, [(η^5-C5Me4C6H5)Ir(phen)Cl]PF6], the IC50 (A549 cancer cell line; 72 h incubation, MTT) is reported as 11.5 ± 2.4 µM, the “cytotoxicity towards A549 (in words)” value (A549 cancer cell line; [2]) is reported as “promising cytotoxicity” and the IC50 (CH1 cancer cell line; 72 h incubation, MTT) is reported as 1320 ± 300 nM. The “cytotoxicity towards CH1 (in words)” value (CH1 cancer cell line; [2]) was “promising cytotoxicity”, the IC50 (SW480 cancer cell line; 72 h incubation, MTT) was 1410 ± 200 nM and the “times more active than cisplatin” value (SW480 cancer cell line; SW480) was “ca. 6.5 times”. The “cytotoxicity towards SW480 (in words)” value (SW480 cancer cell line; [2]) was “promising cytotoxicity” and the IC50 [1] was 6.7 µM.
